Reference: patent publication US5340800A, “Peptide medicaments for the treatment of disease” (priority 1992, dated 1994)
Like-named read-outs stand apart in the source and are kept apart here. No end group written: not given here.

How the values were obtained:
[1] = system: polymorphonuclear leukocyte adhesion to TNF activated endothelial cells; assay type: cell-based, human; details: for Average % Change of PMN Adhesion to TNF Activated ECs: average over PMN donors (# donors in parentheses)
Procedure: Leukocyte adherence can be measured using several assays known in the art, and the preferred assay is described by Charo, et al., 1985, Blood, 65:473. Briefly, the assay consists of labelling leukocytes with an appropriate label, incubating them with endothelial cells and determining the number of leukocytes that adhere. Preferably the cells are labelled with a gamma ray emitting isotope and the preferred labels are ^111 Indium-oxide or ^51 chromium.
Leukocytes may be isolated from human donors using standard techniques. This generally consists of isolating blood in a physiologically balanced salt solution containing an appropriate anticoagulant, and separating the leukocytes by an appropriate separation step, preferably on Ficoll-Hypaquegradients. Contaminating erythrocytes can be removed by hypotonic lysis. The resulting leukocytes are suspended in a physiologically buffered solution, pH 7.4. The preferred physiological buffered solution is Hank's balanced salt solution that is calcium and magnesium free.
The isolated leukocytes can then be labelled by incubating them for an appropriate time, generally 15 minutes, with the desired radioisotope at a predetermined concentration. The radiolabelled cells are washed to remove unincorporated label, and then suspended in an appropriate solution to perform the adhesion assay described below.
Endothelial cells can be prepared from a number of sources and by several techniques known in the art. Preferably they are obtained from human umbilical veins using the procedure of Charo et al., above. Generally, endothelial cells are isolated by enzymatic digestion of the umbilical veins using, preferably, collagenase as described by Jaffe, E. A., et al., 1973, J. of Clin. Invest, 52:2745. The cells are grown on an appropriate tissue culture substratum, preferably gelatine-coated surfaces.
The endothelial cells may be grown in a variety of tissue culture media containing appropriate supplements such as an appropriate concentration of fetal calf serum, and other supplements/additives routinely utilized by those skilled in this art that are recognized as being favorable for endothelial cells. The endothelial cells may be passaged with a dilute solution of an appropriate protease, and if desired a metal ion chelator. Preferably a solution consisting of 0.05 to 0.25% trypsin and 0.02% EDTA is used. To ensure that the cells are indeed endothelial cells, they are tested by immunofluorescence for Factor VIII antigen, a known endothelial cell marker.
Leukocyte adherence to endothelial cell monolayers may be determined as follows. Early passage endothelial cells, generally not beyond the fifth passage, are cultured on an appropriate substratum and in a suitable cell culture medium. The culture substratum is preferably pre-coated with an appropriate substance that enhances the adherence of the endothelial cells. Several such substances are known including fibronectin, poly-L-lysine, gelatin and laminin. Fibronectin is preferred. An appropriate culture substratum is a 96 well micro titer plate, and a suitable medium is Medium 199 containing fetal calf serum and other supplements known to be beneficial for the growth and maintenance of endothelial cells that are well known to those skilled in the art. Prior to adding a predetermined number of labelled leukocytes, the endothelial cell monolayer is washed with a physiologically balanced salt solution containing a reduced amount of fetal calf serum, preferably 1%. The preferred solution is RPMI supplemented with 1% fetal calf serum.
The endothelial cell monolayer containing added leukocytes is incubated for a time sufficient to permit maximum adherence of the leukocytes, and preferably this is conducted at 37° C. for 30 minutes in an appropriate cell culture atmosphere. Generally this would consist of growing and incubating the cells for the assay period in 5% CO2, 95% air, and 95% humidity. […]

[2] = system: polymorphonuclear leukocyte migration; experiment: Chemotaxis of polymorphonuclear leukocytes (trans-well, zymosan-activated human serum); assay type: cell-based; details: for inhibition of chemotaxis migration (in words): 10^-4 -10^-5 M
Procedure: The materials and methods for ascertaining the chemotactic inhibitory properties of peptides are generally known in the art, and the preferred procedure is described by Capsoni, et al., 1989, J. of Immunol. Meth., 120:125. Generally, chemotaxis is determined by positioning the leukocytes and a chemotactic substance on opposite sides of a membrane in appropriate culture media. The preferred apparatus for doing a chemotaxis assay is produced by Costar Corporation, Cambridge, Mass., and is termed the trans-well cell culture apparatus. […] If a substance is being tested for inhibitory activity this can be achieved by combining it with the leukocytes or the chemotactic substance.
The procedure of Capsoni, et al., above, was followed with the following modifications. Leukocytes may be isolated and labelled with ^111 Indium as described for the adhesion assay, above. The cells are resuspended after labelling in an appropriate cell culture medium at about 5×10^6 cells/ml. Next, a desired amount of the cell suspension is mixed with a predetermined amount of the peptide(s) to be tested for inhibitory activity, and the mixture added to an appropriate filter device. Three μm-pore membranes are situated in the wells of a 24 trans-well tissue culture plate. The cell/inhibitory peptide mixture is incubated for a short time at 37° C. to acclimate the cells to the membrane surface, and to provide sufficient time for them to settle onto the membrane surface. Next, inserts are set in wells containing cell culture media. The media contains zymosan-activated human serum at about 0.5%. Zymosan activation generates complement-derived chemotactic factors which attract the leukocytes through the pores of the membrane. This media was also prewarmed for an appropriate time prior to addition to the cell culture wells. After a 30 minute incubation period at 37° C., the number of leukocytes that have migrated through the membrane filter, in the presence or absence of CD18 peptides, is readily determined by counting the amount of ^111 Indium present in the media. This may be facilitated by adding an appropriate detergent at an appropriate concentration to the media in the wells prior to removing an aliquot for counting. In this way, the inhibitory activities of the peptide being tested could be determined.
Many of the materials and methods used to test the inhibitory activity of the CD18 peptides on the chemotactic response of the polymorphonuclear leukocytes are similar or identical to those used to perform the adhesion assays described in Example 1. Polymorphonuclear leukocytes were isolated and labelled with ^111 Indium as described before, and the cells were suspended in RPMI 1640 culture medium at a concentration of 5×10^6 /ml. Next, 75 μl of the cell suspension and 25 μl of media containing a desired concentration of a CD18 peptide were added to trans-well inserts, and the mixture was incubated at 37° C. for 10 minutes.
To the bottom wells of the 24-well plate 0.6 ml of media containing 0.5% zymosan-activated human serum was added. This solution was also warmed to 37° C. for 10 minutes prior to use.
Next, the assay was conducted by incubating the trans-well inserts containing the cell suspension with the desired CD18 peptide in the 24-well plates at 37° C. for 30 minutes. Subsequently, the inserts were removed, and 60 μl of a 10% sodium dodecyl sulphate solution was added to the wells of the 24-well plate. The plates were incubated with gentle shaking at room temperature for 15 minutes, and 110 μl aliquots were removed and the amount of ^111 Indium determined using a gamma-counter.

## FDYPSVGQLAHKLAENNIQPIFAVT [Peptide 2-24, NH2 --Phe--Asp--Tyr--Pro--Ser--Val--Gly--Gln--Leu--Ala--His--Lys--Leu--Ala--Glu--Asn--Asn--Ile--Gln--Pro--Ile--Phe--Ala--Val--Thr--COOH]
[1]; 10^-4 M
  activity on PMN adhesion at 10^-4 M (in words): show activity
  Average % Change of PMN Adhesion to TNF Activated ECs: -79%
[1]; 10^-6 M
  Average % Change of PMN Adhesion to TNF Activated ECs: -10%
[1]; 10^-8 M
  Average % Change of PMN Adhesion to TNF Activated ECs: -2%
[2]
  inhibition of chemotaxis migration (in words): marked inhibition
[2]; 10^-4 M, donor 195
  percent inhibition (-) or enhancement of polymorphonuclear leukocyte migration: -48%
[2]; 10^-4 M, donor 499
  percent inhibition (-) or enhancement of polymorphonuclear leukocyte migration: -77%
[2]; 10^-4 M, donor 591
  percent inhibition (-) or enhancement of polymorphonuclear leukocyte migration: -73%
[2]; 10^-4 M, donor 593
  percent inhibition (-) or enhancement of polymorphonuclear leukocyte migration: -89%
[2]; 10^-5 M, donor 195
  percent inhibition (-) or enhancement of polymorphonuclear leukocyte migration: -33%
[2]; 10^-5 M, donor 499
  percent inhibition (-) or enhancement of polymorphonuclear leukocyte migration: -33%
[2]; 10^-5 M, donor 591
  percent inhibition (-) or enhancement of polymorphonuclear leukocyte migration: -9%
[2]; 10^-5 M, donor 593
  percent inhibition (-) or enhancement of polymorphonuclear leukocyte migration: -40%
[2]; 10^-6 M, donor 195
  percent inhibition (-) or enhancement of polymorphonuclear leukocyte migration: 22%
[2]; 10^-6 M, donor 499
  percent inhibition (-) or enhancement of polymorphonuclear leukocyte migration: 0%
[2]; 10^-6 M, donor 591
  percent inhibition (-) or enhancement of polymorphonuclear leukocyte migration: -17%
[2]; 10^-6 M, donor 593
  percent inhibition (-) or enhancement of polymorphonuclear leukocyte migration: -22%

## IPKSAVGELSEDSSNVVHLIKNAYNKLSS [Peptide 3-29, NH2 --Ile--Pro--Lys--Ser--Ala--Val--Gly--Glu--Leu--Ser--Glu--Asp--Ser--Ser--Asn--Val--Val--His--Leu--Ile--Lys--Asn--Ala--Tyr--Asn--Lys--Leu--Ser--Ser--COOH]
[1]; 10^-4 M
  activity on PMN adhesion at 10^-4 M (in words): show activity
  Average % Change of PMN Adhesion to TNF Activated ECs: -58%
[1]; 10^-5 M
  Average % Change of PMN Adhesion to TNF Activated ECs: +12%
[1]; 10^-6 M
  Average % Change of PMN Adhesion to TNF Activated ECs: -5%
[1]; 10^-7 M
  Average % Change of PMN Adhesion to TNF Activated ECs: +27%
[1]; 10^-8 M
  Average % Change of PMN Adhesion to TNF Activated ECs: -2%
[2]
  inhibition of chemotaxis migration (in words): marked inhibition
[2]; 10^-4 M, donor 195
  percent inhibition (-) or enhancement of polymorphonuclear leukocyte migration: -7%
[2]; 10^-4 M, donor 499
  percent inhibition (-) or enhancement of polymorphonuclear leukocyte migration: -33%
[2]; 10^-4 M, donor 591
  percent inhibition (-) or enhancement of polymorphonuclear leukocyte migration: -57%
[2]; 10^-4 M, donor 593
  percent inhibition (-) or enhancement of polymorphonuclear leukocyte migration: -85%
[2]; 10^-5 M, donor 195
  percent inhibition (-) or enhancement of polymorphonuclear leukocyte migration: 11%
[2]; 10^-5 M, donor 499
  percent inhibition (-) or enhancement of polymorphonuclear leukocyte migration: 23%
[2]; 10^-5 M, donor 591
  percent inhibition (-) or enhancement of polymorphonuclear leukocyte migration: -6%
[2]; 10^-5 M, donor 593
  percent inhibition (-) or enhancement of polymorphonuclear leukocyte migration: -17%
[2]; 10^-6 M, donor 195
  percent inhibition (-) or enhancement of polymorphonuclear leukocyte migration: -26%
[2]; 10^-6 M, donor 499
  percent inhibition (-) or enhancement of polymorphonuclear leukocyte migration: -10%
[2]; 10^-6 M, donor 591
  percent inhibition (-) or enhancement of polymorphonuclear leukocyte migration: 11%
[2]; 10^-6 M, donor 593
  percent inhibition (-) or enhancement of polymorphonuclear leukocyte migration: -6%
